Measurements published in publication PMC10347550, “Cyclic Ruthenium-Peptide Conjugates as Integrin-Targeting Phototherapeutic Prodrugs for the Treatment of Brain Tumors” (Journal of the American Chemical Society, 2023).
pEC50: −log10 of the molar value. Like-named read-outs stand apart in the source and are kept apart here.

Key:
[1] = Nanoaggregation in Opti-MEM by DLS and TEM; type: physicochemical; conditions: 50 μM in Opti-MEM with 2.5% FCS, dark, 24 h (Figure S20)
Description: DLS was used to determine the distribution of particles in complex solutions (50 μM) in Opti-MEM (Gibco complete medium 11058-021, supplemented with 0.2% v/v penicillin/streptomycin (P/S), and 1% v/v glutamine) with or without 2.5% fetal calf serum (FCS) proteins via a ZEN1600 Zetasizer Nano instrument (Malvern Instruments Limited) operated with a 633 nm laser.
The TEM experiments were carried out with a TEM JEOL 1010:100 kV transmission electron microscope using a Formvar/carbon-coated copper grid (Polysciences Inc.). For the preparation of samples, a 1 mM stock aqua solution was diluted to 50 μM by Opti-MEM, after which, each drop (15 μL) of the complex solution was deposited on a parafilm (Bemis, HS234526C). The grids (Electron Microscopy Sciences, 71137) were placed on top of the drops for 5 min and then the excess liquid on the grid was removed with filter paper and air dried for 2 h for the TEM measurement. The TEM measurements were carried out under vacuum conditions.

U87MG cells [2] = assay: 2D cytotoxicity assay, 24 h DLI & no wash, SRB endpoint; type: cell-based, human
Description: (§1) For each complex, two identical plates were prepared, one of which was irradiated with light, while the other was used as a dark control. […] Finally, at t = 96 h, 100 μL of cold trichloroacetic acid (10% w/v) was added to each well to fix the cells, and all plates were then transferred to a 4 °C refrigerator for 48 h before performing an SRB cell quantification endpoint assay.[72] Trichloroacetic acid was first removed and each plate was gently washed with demi water 3–5 times. Then, each well was dried in the air, and 100 μL of 0.6% SRB solution (0.6% w/v in 1% v/v acetic acid/H2O solution) was added into each well where it was allowed to stain for 30 min. Then, the plates were washed 3–5 times using an acetic acid solution (1% v/v). Once the plate was washed it was allowed to dry overnight. Then, 200 μL of 10 mM Tris base buffer was added to each well and the plate was allowed to sit on an orbital shaker for 0.5–16 h. After mixing, the absorbance of each well was determined by an M1000 Tecan Reader, reading at 510 nm. All experiments were conducted in independent biological triplicate. The obtained data were analyzed with Graphpad Prism 5 using the dose–response two-parameter Hill slope equation (eq 1) to obtain the half-maximal effective concentrations EC50 (defined as the concentration of drug that kills 50% of cells, compared to the untreated control). [drawing 1] 1

subcutaneous U87MG tumor = assay: In vivo tumor inhibition study; design: species or system mice
Description: (§2) All animal studies were approved by the Institutional Animal Care and Use Committee of the US National Institutes of Health and were performed according to the relevant guidelines (8th edition, 2011). Female BALB/c nude mice (6 weeks old) were purchased from Shanghai SLAC Laboratory Animal Co. LTD (Shanghai, China). Tumor-bearing mice were obtained by subcutaneously injecting U87MG tumor cells (2 × 10^6 cells per mouse, dispersed in 100 μL of FBS) into the right hind limb and waiting for 15 days until the tumor volume reached 50–100 mm^3.
The mice bearing U87MG solid tumors were first randomly divided into 6 groups (N = 5): PBS, light, [1]Cl2, [2]Cl2, [1]Cl2 + light, and [2]Cl2 + light. The injectable solution of [1]Cl2 or [2]Cl2 was obtained by diluting the stock solution of the compound in DMSO (10 mg/mL) 10 times by RPMI-1640 medium containing 10% FBS, 100 units/mL penicillin, and 100 μg/mL streptomycin. The injection doses of [1]Cl2 and [2]Cl2 were set as 7.7, 5 mg/kg, respectively (injection volume = 100 μL of the same molar weight of Ru in the last four groups). In groups 2, 5, and 6, laser irradiation (520 nm, 100 mW/cm^2, 5 min) was carried out twice at 12 h post-injection, with a 5 min interval. Accordingly, the total laser dose for each illumination was 100 mW/cm^2, 10 min, and 60 J/cm^2. Treatments in all groups were carried out only once on day 0. Digital photos of tumor-bearing mice, the tumor size (length and width, measured with a caliper), and mouse body weight in all groups were recorded every third day. The tumor volume was calculated according to the standard formula: 0.5 × length × width^2. Both the average tumor volume and body weight were followed for 15 days. On day 7, one mouse from each group was sacrificed and then the tumor tissue was dissected and fixed with 10% paraformaldehyde. The tumor cell damage and apoptosis and necrosis conditions were evaluated by H&E or TUNEL stained protocols. On day 15 (the end of the tumor treatment period), all nude mice were humanly sacrificed, and the main organs (heart, liver, spleen, kidney, and lung) and tumors were resected. Digital photographs of tumors in each group were immediately obtained. All normal tissues were fixed with 10% paraformaldehyde and further analyzed in accordance with the H&E staining protocol, to estimate their off-target side effect after various treatments.

[3] = Biodistribution of Ru by ICP-OES; type: in vivo, mice; conditions: U87MG tumor-bearing nude mice, ICP-OES, n = 3, ± SD
Description: as §2
The Blab/c nude mice bearing U87MG tumors were randomly assigned to two groups (N = 15) and received an intravenous injection of [1]Cl2 (7.7 mg/kg) or [2]Cl2 (5 mg/kg) at the same molar dose. Then, the mice were sacrificed at 2, 6, 12, 18, and 24 h post-injection (each time point contained 3 mice). The main organs (heart, liver, spleen, kidney, lung) and tumor tissue were dissected. Then, around 1 g of organs and tumors was lysed in a 7 mL mixture solution containing 5 mL of 65% HNO3 and 2 mL of 30% (w/w) H2O2 at 100 °C. After 12 h, all solutions had evaporated, and 5 mL of aqueous solution containing 2% HNO3 was added. The Ru content in all samples was measured by ICP-OES (JY-Horiba ICP-OES Ultima 2).

U87MG cells [4] = assay: Intracellular ROS generation, CellROX Deep Red, flow cytometry; conditions: 15 µM, 24 h
Description: The generation of ROS (reactive oxygen species) in U87MG cells was measured using a ROS deep red fluorescence indicator (Abcam, ab186029). U87MG (1 × 10^5, 1 mL) were seeded into 12-well plates and incubated for 24 h in the dark under normoxia. The cells were then treated with 15 μM complexes with Opti-MEM, Λ-[1]Cl2, Δ-[1]Cl2, cisplatin, or Rose Bengal. There are two groups for each drug (dark + light). After 24 h of incubation under normoxia, the plate was washed with cold PBS once, and cells were trypsinized, harvested, and then resuspended in 150 μL of PBS. The cell suspension from the centrifuge tubes was transferred to 96-round-bottom well plates (Thermo Scientific, 268200), and the light group was irradiated for 20 min with 520 nm light (dose = 13.1 J/cm^2). After which, the Cellular ROS Deep Red dye (abcam, ab186029) was added with 1000× dilution, and cells were further stained for 1 h. Untreated cells were maintained as negative controls, whereas a 250 μM tBHP solution in Opti-MEM complete was administered as a positive control for ROS. The levels of intracellular ROS were then determined using the CytoFLEX flow cytometer. Forward versus side scatter (FSC vs SSC) gating was used to select the population of interest and avoid cell debris. A forward scatter height (FSC-H) vs forward scatter area (FSC-A) gating was used for doublet exclusion. Fluorescence measurements were acquired with the APC-A (638 nm excitation, 660/10 nm emission) channel given the known excitation/emission wavelengths of the ROS Deep Red dye (650/675 nm, respectively). All flow cytometry data were processed using FlowLogic 8.5 software.

A549 cells = assay: 2D cytotoxicity assay, 24 h DLI & no wash, SRB endpoint; type: cell-based, human; conditions: A549 2D monolayer, not washed, n = 3
Description: as §1

PC-3 cells = assay: as above; type: cell-based, human; conditions: PC-3 2D monolayer, not washed, SRB at 96 h, n = 3
Description: as §1

U87MG spheroids = assay: 3D tumor spheroid viability assay, CellTiter-Glo 3D; type: cell-based, human; conditions: U87MG 3D spheroids, CellTiter-Glo 3D at 96 h, n = 3
Description: The spheroids were incubated further under normoxia. […] After 30 min of shaking on an IKA Vibrax shaker at 500 rpm at room temperature, the luminescence in each well was measured with a Tecan microplate reader. […] All experiments were conducted in three biologically independent replicates.

U87MG cells [5] = assay: Apopxin/Nuclear Green DCS1 double-staining cell death mode study; type: cell-based, human; conditions: 20 μM, 24 h incubation, 1 h after green light (13.1 J/cm^2), flow cytometry
Description: After 24 h of incubation, one plate labeled light was irradiated for 20 min using 520 nm green light (13.1 J/cm^2), and then both plates were allowed to incubate further for 1, 2, 6, or 24 h in a normoxia incubator. After incubation, the cells were trypsinized, collected, and washed with cold PBS twice. […] Cells after staining were detected by flow cytometry (CytoFLEX flow cytometer) immediately. Control groups with only assay buffer, only buffer and Apopxin Deep Red Indicator, only buffer and Nuclear Green DCS1, and all three were included to be used for gating during data analysis. Parameters APC (638 nm excitation, 660/10 nm emission) and FITC (488 nm excitation, 525/40 nm emission) were used considering their similar excitation/emission wavelength with two detectors Apopxin Deep Red Indicator, Ex/Em = 630/660 nm (apoptosis), and Nuclear Green DCS1, Ex/Em = 490/520 nm (necrosis).

[6] = 2 h after i.v. injection of [1]Cl2 7.7 mg/kg or [2]Cl2 5 mg/kg
[7] = 6 h after i.v. injection of [1]Cl2 7.7 mg/kg or [2]Cl2 5 mg/kg
[8] = 12 h after i.v. injection of [1]Cl2 7.7 mg/kg or [2]Cl2 5 mg/kg
[9] = 18 h after i.v. injection of [1]Cl2 7.7 mg/kg or [2]Cl2 5 mg/kg
[10] = 24 h after i.v. injection of [1]Cl2 7.7 mg/kg or [2]Cl2 5 mg/kg
[11] = 21% O2, dark, 24 h treatment, read-out: EC50,dark

## CSCc1ccccn1.[Cl-].[Cl-].[Ru+2].c1ccc(-c2ccnc3c2ccc2c(-c4ccccc4)ccnc23)cc1.c1ccc(-c2ccnc3c2ccc2c(-c4ccccc4)ccnc23)cc1 [[2]Cl2, rac-[Ru(Ph2phen)2(mtmp)]Cl2, reference compound]
[1]
  nanoparticle formation (DLS): not
U87MG cells [2]; normoxic 2D monolayer U87MG, mixture of Δ and Λ isomers (Figure S34a)
  PI: 6
U87MG cells [2]; normoxic 2D monolayer U87MG, mixture of Δ and Λ isomers, green light 520 nm, 13.1 J/cm^2 (Figure S34a), read-out: EC50,light
  pEC50: 6.52
Subcutaneous U87MG tumor; day 7, combined with 520 nm laser irradiation
  TUNEL staining of tumor slices: induced outstanding apoptosis of tumor cells
Subcutaneous U87MG tumor; single i.v. dose day 0 ([1]Cl2 7.7 mg/kg, [2]Cl2 5 mg/kg), 520 nm laser 60 J/cm^2 at DLI 12 h, tumor volume over 15 days, n = 5
  effect of light irradiation on tumor growth, light group compared to dark group: statistically nonsignificant
[3]; [6]
  Ru content, Heart: 2.0 ± 0.3 %ID/g
  Ru content, Kidney: 3.2 ± 0.4 %ID/g
  Ru content, Liver: 40.5 ± 3.3 %ID/g
  Ru content, Lung: 1.5 ± 0.3 %ID/g
  Ru content, Spleen: 4.6 ± 0.4 %ID/g
  Ru content, Tumor: 1.8 ± 0.3 %ID/g
[3]; [7]
  Ru content, Heart: 1.9 ± 0.5 %ID/g
  Ru content, Kidney: 2.0 ± 0.4 %ID/g
  Ru content, Liver: 29.5 ± 1.9 %ID/g
  Ru content, Lung: 1.6 ± 0.2 %ID/g
  Ru content, Spleen: 2.2 ± 0.5 %ID/g
  Ru content, Tumor: 6.5 ± 0.5 %ID/g
[3]; [8]
  Ru content, Heart: 1.8 ± 0.3 %ID/g
  Ru content, Kidney: 1.7 ± 0.2 %ID/g
  Ru content, Liver: 16.3 ± 3.3 %ID/g
  Ru content, Lung: 1.7 ± 0.2 %ID/g
  Ru content, Spleen: 2.2 ± 0.3 %ID/g
  Ru content, Tumor: 12.3 ± 1.5 %ID/g
[3]; [9]
  Ru content, Heart: 1.7 ± 0.2 %ID/g
  Ru content, Kidney: 1.9 ± 0.2 %ID/g
  Ru content, Liver: 14.6 ± 2.3 %ID/g
  Ru content, Lung: 1.7 ± 0.1 %ID/g
  Ru content, Spleen: 1.6 ± 0.2 %ID/g
  Ru content, Tumor: 2.8 ± 0.6 %ID/g
[3]; [10]
  Ru content, Heart: 1.7 ± 0.2 %ID/g
  Ru content, Kidney: 1.5 ± 0.1 %ID/g
  Ru content, Liver: 7.3 ± 0.8 %ID/g
  Ru content, Lung: 1.7 ± 0.1 %ID/g
  Ru content, Spleen: 1.7 ± 0.2 %ID/g
  Ru content, Tumor: 1.7 ± 0.1 %ID/g

## N.N.[Cl][Pt][Cl] [cisplatin, reference compound]
U87MG cells [4]
  Ratio of L/D (light/dark ROS ratio): 0.81
U87MG cells [2]; U87MG 2D monolayer, 1% O2, dark, 24 h treatment, not washed, SRB at 96 h, n = 3, read-out: EC50,dark
  pEC50: 4.89
U87MG cells [2]; U87MG 2D monolayer, 1% O2, 520 nm, 7.22 mW/cm^2, 13.1 J/cm^2, 30 min, not washed, SRB at 96 h, n = 3, read-out: EC50,light
  pEC50: 4.90
U87MG cells [2]; U87MG 2D monolayer, 21% O2, dark, 24 h treatment, not washed, SRB at 96 h, n = 3, read-out: EC50,dark
  pEC50: 5.55
U87MG cells [2]; U87MG 2D monolayer, 21% O2, 520 nm, 10.9 mW/cm^2, 13.1 J/cm^2, 20 min, not washed, SRB at 96 h, n = 3, read-out: EC50,light
  pEC50: 5.40
A549 cells; 1% O2, dark, 24 h treatment, SRB at 96 h, read-out: EC50,dark
  pEC50: 5.19
A549 cells; 1% O2, 520 nm, 7.22 mW/cm^2, 13.1 J/cm^2, 30 min, SRB at 96 h, read-out: EC50,light
  pEC50: 5.20
A549 cells; 21% O2, dark, 24 h treatment, SRB at t = 96 h, read-out: EC50,dark
  pEC50: 5.64
A549 cells; 21% O2, 24 h treatment, 520 nm, 10.9 mW/cm^2, 13.1 J/cm^2, 20 min, SRB at 96 h, read-out: EC50,light
  pEC50: 5.62
PC-3 cells; 1% O2, dark, 24 h treatment, read-out: EC50,dark
  pEC50: 4.64
PC-3 cells; 1% O2, 520 nm, 7.22 mW/cm^2, 13.1 J/cm^2, 30 min, read-out: EC50,light
  pEC50: 4.59
PC-3 cells; [11]
  pEC50: 5.35
PC-3 cells; 21% O2, 520 nm, 10.9 mW/cm^2, 13.1 J/cm^2, 20 min, read-out: EC50,light
  pEC50: 5.39
U87MG spheroids; [11]
  pEC50: 5.07
U87MG spheroids; 21% O2, green light after 24 h treatment, read-out: EC50,light
  pEC50: 5.10
U87MG cells [5]
  cell death mode: mainly died via apoptosis
